Where two headings read alike, the source gives them in different places.
What was measured:
[1] = Description: (§1) The retention behavior of the 42 basic compounds (Table 1) were investigated at different ratios of methanol (φ = 0.7–0.1, the interval was 0.1 or 0.05 based on the retention of the investigated solutes). The logk values were plotted versus φ for each solute at pH 7.0, pH 8.0, pH 9.0, and pH 10.0. […] The logD values of the model compounds and verification compounds calculated using Equation (S3) based on the logP and pH values are also listed in Table 1.
(§2) At each pH, the retention time (tR) of every analyte was determined for at least four different volume fractions (φ) of methanol. All the tR values of the solutes were obtained by averaging the results of at least three independent injections. The tR value was corrected using dual-point retention time correction (DP-RTC). For a detailed description of the process, refer to our previous work. For the different hydrophobicities of the studied compounds, benzene, toluene, and benzyl alcohol were used as anchor compounds in the DP-RTC method. The dead time t0 was determined using uracil. For each solute, the logarithm of k was plotted against φ, and logkw was obtained using the Equation (S1). The logD values of the model compounds were calculated using Equation (S3), and the logD–logkw models were established with Equation (S4). The statistical analysis for the regression model was accomplished using Origin 9.4. […]
(§3) Where, k is the capacity factor, φ is the volume fraction of organic modifier in the mobile phase, and S is the constant obtained by linear regression in the equations. […]
and logkw, which is usually called Collander equation [25 ]. lo g lo g wPm k n= + (S2)
Where, m and n are constants obtained by linear regression.
The Eqs. (S1) and (S2) are the basis for the determination of logP by revered- phase liquid chromatography (RPLC) method. For dissociative solutes, it has been confirmed by many studies that the logD calibrated from logP has a better linear correlation with logkw than logP.
For basic compounds, the logD value can be calibrated from Eq. (S3), and the Collander equation can be rewritten into Eq. (S4). log log( )D − −+ −+= + ++P […]
lo g ' lo g 'Dm k n= +w (S4)
Where, pKa1, pKa2 , … p Kan are the dissociation constants of basic compounds of corresponding acids in the mobile phase, pH is the pH value of mobile phase, m′ and n′ are fitting parameters. Han et al. pointed out that although mobile phase pH and pKa of solutes will change along with the varied organic modifier fraction, the difference between a couple of relevant pH and pKa is a constant. Therefore, the used pH and pKa in this paper were both the values obtained at 100% aqueous phase. […]

[2] = IS-RPLC retention on silica-based C18 column, logkw by linear solvent strength model; format: physicochemical
Procedure: as §1
The column temperature was set at 30 °C. Methanol and 20 mmol/L ammonium phosphate buffer (pH = 7.0, 8.0, 9.0, 10.0) was used as the mobile phase to perform isocratic elution. The injection volume was 10 µL and the detection wavelength for each eluted compound was set at its optimum absorption wavelength.
as §2, §3
The Eqs. (S1) and (S2) are the basis for the determination of logP by revered- phase liquid chromatography (RPLC) method. For dissociative solutes, it has been confirmed by many studies that the logD calibrated from logP has a better linear correlation with logkw than logP. […]

[3] = design: method as in UFZ-LSER database; conditions: hydrogen bonding parameter B; ref UFZ-LSER database; cited from earlier work
[4] = ref database module of ACD/Labs software, cited from earlier work
[5] = ref database module of ACD/Labs software; cited from earlier work
[6] = physchem
Procedure: Multi-parameter QSRR models including logD, logkw, ne, A, and B were established using the multiple linear regression (MLR) method. In the process of linear fitting, ne, A, B, and their different combinations were introduced to optimize the models.
The logD values reported in the literature for these four compounds were calculated using Equation (S3) with corresponding pKa, logP, and pH values.
At each pH, the retention time (tR) of every analyte was determined for at least four different volume fractions (φ) of methanol. All the tR values of the solutes were obtained by averaging the results of at least three independent injections. The tR value was corrected using dual-point retention time correction (DP-RTC). For a detailed description of the process, refer to our previous work. For the different hydrophobicities of the studied compounds, benzene, toluene, and benzyl alcohol were used as anchor compounds in the DP-RTC method. The dead time t0 was determined using uracil. For each solute, the logarithm of k was plotted against φ, and logkw was obtained using the Equation (S1). The logD values of the model compounds were calculated using Equation (S3), and the logD–logkw models were established with Equation (S4). The statistical analysis for the regression model was accomplished using Origin 9.4.

[7] = pH 10.0, calculated with literature logP, pKa and pH, Equation (S3)
[8] = pH 7.0, methanol/20 mmol/L ammonium phosphate buffer, Welch Xtimate C18, 30 °C, 100% aqueous extrapolation
[9] = pH 8.0, methanol/20 mmol/L ammonium phosphate buffer, Welch Xtimate C18, 30 °C, 100% aqueous extrapolation
[10] = pH 9.0, methanol/20 mmol/L ammonium phosphate buffer, Welch Xtimate C18, 30 °C, 100% aqueous extrapolation
[11] = pH 10.0, methanol/20 mmol/L ammonium phosphate buffer, Welch Xtimate C18, 30 °C, 100% aqueous extrapolation
[12] = pH 7.0, calculated with literature logP, pKa and pH, Equation (S3)
[13] = pH 8.0, calculated with literature logP, pKa and pH, Equation (S3)
[14] = pH 9.0, calculated with literature logP, pKa and pH, Equation (S3)

SMILES	logDpH 7.0 ([1]; pH 7)	logDpH 8.0 ([1]; pH 8)	logDpH 9.0 ([1]; pH 9)	logkw-pH 7.0 [2, 8]	logkw-pH 8.0 [2, 9]	logkw-pH 9.0 [2, 10]	logkw-pH 10.0 [2, 11]	B [3]	logP ([4]; n-octanol/water)	logDpH 10.0 ([1]; pH 10)	logkw-pH 7.0 ([2]; pH 7)	logkw-pH 8.0 ([2]; pH 8)	logkw-pH 9.0 ([2]; pH 9)	logkw-pH 10.0 ([2]; pH 10)	pKa1 [5]	other results
Cc1cc(C)nc(C)c1 [2,4,6-Trimethylpyridine]	1.44	1.91	2.00	2.06	2.23	2.30	2.34	0.63	2.01							logDpH 10.0 [1, 7]: 2.01
Cc1ccc(N)cc1 [4-Methylaniline]	1.40	1.41	1.41					0.94	1.41	1.41	1.50	1.53	1.54	1.58	5.08	
Cc1ccncc1 [4-Methylpyridine]	1.29	1.33	1.33	1.40	1.41	1.44	1.46	0.63	1.33	1.33					5.99	
CN(C)c1ccccc1 [N, N-Dimethylaniline]								0.96			2.18	2.37	2.39	2.44	5.07	
Cc1ccnc(C)c1 [2,4-Dimethylpyridine]				1.76	1.85	1.88	1.96	0.63	1.65						6.58	logDpH 7.0 [1, 12]: 1.51; logDpH 8.0 [1, 13]: 1.63; logDpH 9.0 [1, 14]: 1.65; logDpH 10.0 [1, 7]: 1.65
Cc1ccccc1N [2-Methylaniline]	1.40	1.40	1.40					0.97	1.40	1.40	1.47	1.44	1.45	1.49		
Cc1cccc(C)n1 [2,6-Dimethylpyridine]	1.52	1.66	1.68	1.68	1.76	1.78	1.81	0.61	1.68	1.68					6.65	
CCN(CC)c1ccccc1 [N, N-Diethylaniline]	3.17	3.29	3.31					0.95	3.31	3.31	3.20	3.44	3.47	3.54	6.57	
Cc1ccc(N)c(C)c1 [2,4-Dimethylaniline]	1.68	1.68	1.68					0.95	1.68	1.68	1.92	1.98	2.00	2.04	4.70	
COc1ccccc1N [2-Methoxyaniline]	0.95	0.95	0.95					0.99	0.95	0.95	1.38	1.41	1.42	1.49	4.53	
CC(C)c1ccc(N)cc1 [4-Isopropylaniline]				2.42	2.57	2.59	2.65	0.92	2.23						4.85	logDpH 7.0 [1, 12]: 2.23; logDpH 8.0 [1, 13]: 2.23; logDpH 9.0 [1, 14]: 2.23; logDpH 10.0 [1, 7]: 2.23
CCc1ccccc1N [2-Ethylaniline]	1.63	1.67	1.67	1.87	1.94	1.95	1.95	0.96		1.67						chromatographic logD ([6]; pH 7): 1.79; chromatographic logD ([6]; pH 8): 1.77; chromatographic logD ([6]; pH 9): 1.75; chromatographic logD ([6]; pH 10): 1.71
CCOc1ccc(N)cc1 [4-Ethoxyaniline]	1.23	1.24	1.24					0.95	1.24	1.24	1.45	1.49	1.50	1.60		
CCc1ccccn1 [2-Ethylpyridine]				1.74	1.79	1.80	1.90	0.61	1.67							logDpH 7.0 [1, 12]: 2.05; logDpH 8.0 [1, 13]: 2.05; logDpH 9.0 [1, 14]: 2.05; logDpH 10.0 [1, 7]: 2.05; chromatographic logD ([6]; IS-RPLC retention (logkw), pH 7): 1.62; chromatographic logD ([6]; IS-RPLC retention (logkw), pH 8): 1.62; chromatographic logD ([6]; IS-RPLC retention (logkw), pH 9): 1.6; chromatographic logD ([6]; IS-RPLC retention (logkw), pH 10): 1.65; logP ([4]; Table 4, verification compounds): 1.67
NCc1ccccc1 [Benzylamine]				0.36	0.49	1.05	1.42								9.35	
Cc1ccnc(N)c1 [2-Amino-4-methylpyridine]				1.00	1.16	1.28	1.32	0.95	0.89						7.38	logDpH 7.0 [1, 12]: 0.36; logDpH 8.0 [1, 13]: 0.80; logDpH 9.0 [1, 14]: 0.88; logDpH 10.0 [1, 7]: 0.89
COc1ccc(N)cc1 [4-Methoxyaniline]	0.79		0.80					1.05	0.80	0.80	1.05	0.99	1.07	1.11	5.36	logDpH 8.0 [1, 13]: 0.80
